Measured values from patent US9505713B2, “High-purity sodium p-styrenesulfonate with excellent hue, method for producing the same, poly(sodium p-styrenesulfonate) with excellent hue using the same, and dispersant and synthetic starch for clothing finishing using the poly(sodium p-styrenesulfonate)” (TOSOH ORGANIC CHEMICAL CO., LTD., priority 2012, dated 2016).
Several values for one entry are separate records, joined by “and”; a condition that tells them apart may be missing. Identical values can stand only once.

Tests used:
Assay type in all cases: physicochemical
[1] = Measurement of particle size distribution (laser diffraction/scattering, Microtrack HRA)
Description: <Measurement of Particle Size Distribution>
In a 30-ml glass sample bottle, 0.55 g of a sample and 15.0 g of isopropanol were collected, and treated with an ultrasonic washer for 4 minutes while keeping the temperature at 25° C. or less to prepare a slurry. Thereafter, the particle size (median diameter) distribution was measured under the following conditions, using a laser diffraction/scattering type particle size analyzer, Microtrack HRA (manufactured by Nikkiso Co., Ltd.).
Particle transparency=Transp
Particle refractive Index=1.55
Fluid refractive Index=1.38

[2] = Measurement of repose angle (fluidity of powder)
Description: <Measurement of Repose Angle>
(1) Instruments and Apparatus
1) On a dish, 80 g of a sample is naturally dropped through a funnel of the apparatus.
2) The vertical angle (a) of a circular cone formed on the dish is read with the protractor up to a digit of an integer.
3) This operation is repeated 3 times, and the average value of the vertical angle (a) of the circular cone is determined.
(§1) The repose angle is calculated by the following equation. […] A=(180−a)/2 wherein A is the repose angle (degrees) and a is the vertical angle (degrees) of the circular cone. <Measurement of Rate of Dissolution (Solubility in Water)>

[3] = Measurement of rate of dissolution (solubility in water); conditions: 25° C.
Description: as §1
In a 20-ml glass sample bottle (27 mm in outer diameter×55 mm in depth), 1.00 g of a sodium p-styrenesulfonate powder (wet powder containing impurities and water) was accurately weighed in a temperature-controlled room of 25° C., and thereafter, 9.00 g of ion-exchanged water was quickly added thereto. Then, the sample bottle was turned upside down with a period of one cycle per second, and the time before dissolution of sodium p-styrenesulfonate was visually judged.

[4] = Whiteness and yellowness of sodium p-styrenesulfonate powder with color-difference meter; conditions: sodium p-styrenesulfonate crystal powder
Description: <Measurement of Whiteness and Yellowness of Sodium p-Styrenesulfonate with Color-Difference Meter>
After a color-difference meter (manufactured by Nippon Denshoku Industries Co., Ltd., C-106) was switched on and stabilized for 30 minutes, a light projection lens (30 mm in diameter) and a sample stand (30 mm in diameter) were attached thereto, and standard adjustment was performed. In a cell, 3.0 g of a sample was weighed, and a weight of 1 kg was placed thereon for 30 seconds. Thereafter, it was confirmed that there were no space and no wrinkles at a bottom portion of the cell. Measurement was made with the color-difference meter to read the whiteness (WI value) and the yellowness (YI value).

[5] = APHA values of 15 wt % aqueous sodium p-styrenesulfonate and poly(sodium p-styrenesulfonate) solutions; conditions: 15 wt % aqueous solution of the monomer
Description: <Measurement of APHA values of Aqueous Sodium p-Styrenesulfonate and Aqueous Poly(Sodium p-Styrenesulfonate) Solutions>
After a color-difference meter (manufactured by Nippon Denshoku Industries Co., Ltd., C-106) was switched on and stabilized for 30 minutes, a measuring method was changed to transmission, and a light projection lens (30 mm in diameter) and a sample stand (30 mm in diameter) were attached thereto. A standard white plate and a 0-CAL plate were set, and zero calibration was performed. After water was poured in a square cell and standard calibration was performed, 15 wt % aqueous sodium p-styrenesulfonate solution and 15 wt % aqueous poly(sodium p-styrenesulfonate) solution samples were each transferred into the square cell, and set, followed by reading the APHA values (converted from a calibration curve prepared by using standard solutions having APHA values of 0 to 500).

[6] = sodium p-styrenesulfonate powder, Table 1
[7] = sodium p-styrenesulfonate powder, Table 1, smaller = better fluidity
[8] = 1.00 g powder in 9.00 g ion-exchanged water, Table 1
[9] = before purification, Table 2, 1.00 g in 9.00 g water
[10] = after purification, Table 2, 1.00 g in 9.00 g water
[11] = listed as sodium p-styrenesulfonate A
[12] = listed as sodium p-styrenesulfonate B

SMILES	Median diameter [1, 6]	Small particles less than 10.00 μm [1, 6] [%]	Repose angle [2, 7] [deg]	Rate of dissolution (dissolution time in water) [3, 8] [s]	Whiteness (WI value) [4]	Yellowness (YI value) [4]	Solution APHA value (hue of sodium p-styrenesulfonate) [5]	Median diameter ([1]; before purification, Table 2)	Small particles less than 10.00 μm ([1]; before purification, Table 2) [%]	Repose angle ([2]; before purification, Table 2) [deg]	Rate of dissolution (dissolution time in water) [3, 9] [s]	also measured
C=Cc1ccc(S(=O)(=O)[O-])cc1.[Na+] [Example 5, sodium p-styrenesulfonate]	18.6 μm	14.3	59	130	95.0	7.5	80					
C=Cc1ccc(S(=O)(=O)[O-])cc1.[Na+] [Example 8, sodium p-styrenesulfonate]								37 μm and 37.0 μm	3.1	51	140	
C=Cc1ccc(S(=O)(=O)[O-])cc1.[Na+] [Example 7, sodium p-styrenesulfonate]								110 μm and 110.0 μm	0.0	43	200	
C=Cc1ccc(S(=O)(=O)[O-])cc1.[Na+] [Example 9, sodium p-styrenesulfonate]												Median diameter ([1]; after purification, Table 2): 48 μm and 48.0 μm; Small particles less than 10.00 μm ([1]; after purification, Table 2): 2.5%; Repose angle ([2]; after purification, Table 2): 50 deg; Rate of dissolution (dissolution time in water) [3, 10]: 130 s
C=Cc1ccc(S(=O)(=O)[O-])cc1.[Na+] [Comparative Example 4, sodium p-styrenesulfonate]	20.6 μm	14.3	60	126	93.0	10.1	120					
C=Cc1ccc(S(=O)(=O)[O-])cc1.[Na+] [Comparative Example 8, sodium p-styrenesulfonate]								160 μm and 160.0 μm	0.0	45	270	
C=Cc1ccc(S(=O)(=O)[O-])cc1.[Na+] [Comparative Example 1, sodium p-styrenesulfonate]	20.2 μm	12.6	60	132	90.2	16.5	220					Whiteness (WI value) [4, 11]: 90.2; Yellowness (YI value) [4, 11]: 16.5; Solution APHA value (hue of sodium p-styrenesulfonate) [5, 11]: 220
C=Cc1ccc(S(=O)(=O)[O-])cc1.[Na+] [Comparative Example 9, sodium p-styrenesulfonate]								22.0 μm	12.5	59	127	Median diameter ([1]; after purification, Table 2): 25.1 μm; Small particles less than 10.00 μm ([1]; after purification, Table 2): 1.6%; Repose angle ([2]; after purification, Table 2): 58 deg; Rate of dissolution (dissolution time in water) [3, 10]: 130 s
C=Cc1ccc(S(=O)(=O)[O-])cc1.[Na+] [Example 2, sodium p-styrenesulfonate]	63 μm and 63.0 μm	2.0	49	155	95.5	2.9	15					

The next lines start with results.

Median diameter [1, 6]	Small particles less than 10.00 μm [1, 6] [%]	Repose angle [2, 7] [deg]	Rate of dissolution (dissolution time in water) [3, 8] [s]	Whiteness (WI value) [4]	Yellowness (YI value) [4]	Solution APHA value (hue of sodium p-styrenesulfonate) [5]	Median diameter ([1]; before purification, Table 2)	Small particles less than 10.00 μm ([1]; before purification, Table 2) [%]	Repose angle ([2]; before purification, Table 2) [deg]	Rate of dissolution (dissolution time in water) [3, 9] [s]	SMILES	also measured
81 μm and 81.0 μm	0.5	46	165	95.7	5.8	30					C=Cc1ccc(S(=O)(=O)[O-])cc1.[Na+] [Example 1, sodium p-styrenesulfonate]	
							19.8 μm	13.6	59	130	C=Cc1ccc(S(=O)(=O)[O-])cc1.[Na+] [Comparative Example 7, sodium p-styrenesulfonate]	Median diameter ([1]; after purification, Table 2): 22.3 μm; Small particles less than 10.00 μm ([1]; after purification, Table 2): 3.1%; Repose angle ([2]; after purification, Table 2): 58 deg; Rate of dissolution (dissolution time in water) [3, 10]: 128 s
21.3 μm	12.7	59	122	91.0	16.0	200					C=Cc1ccc(S(=O)(=O)[O-])cc1.[Na+] [Comparative Example 6, sodium p-styrenesulfonate]	Whiteness (WI value) [4, 12]: 91.0; Yellowness (YI value) [4, 12]: 16.0; Solution APHA value (hue of sodium p-styrenesulfonate) [5, 12]: 200
21.5 μm	12.1	59	123	93.5	12.5	150					C=Cc1ccc(S(=O)(=O)[O-])cc1.[Na+] [Comparative Example 3, sodium p-styrenesulfonate]	
							63.1 μm	1.5	47	160	C=Cc1ccc(S(=O)(=O)[O-])cc1.[Na+] [Example 6, sodium p-styrenesulfonate]	
